Results: US12037324B2, “Biarylmethyl heterocycles” (Université de Montréal, priority 2016, dated 2024)
Read-outs that look alike come from different tables or passages of the source.

Assays:
[1] = target: T1, AGTR1 (Homo sapiens, UniProt P30556); assay: DiscoveRx IP1 accumulation assay (HTRF), agonist mode, Pathunter CHO-K1 AGTR1 β-arrestin cell line; assay type: cell-based; conditions: for EC50: read-out: IP-1 EC50
T1 construct: host or cells: Pathunter CHO-K1 AGTR1 β-arrestin cell line (CHO-K1)
T1 sequence (P30556 1-359): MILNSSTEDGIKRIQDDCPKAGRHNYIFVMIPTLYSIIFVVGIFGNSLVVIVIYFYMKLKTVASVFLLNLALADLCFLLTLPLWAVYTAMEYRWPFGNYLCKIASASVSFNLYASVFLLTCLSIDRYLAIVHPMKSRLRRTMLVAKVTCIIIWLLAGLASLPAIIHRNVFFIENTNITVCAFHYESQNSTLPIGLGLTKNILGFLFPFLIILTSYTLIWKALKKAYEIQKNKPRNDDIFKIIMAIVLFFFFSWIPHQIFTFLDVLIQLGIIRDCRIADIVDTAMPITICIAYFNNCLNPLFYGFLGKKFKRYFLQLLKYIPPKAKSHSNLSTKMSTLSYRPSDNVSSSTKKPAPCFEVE
In short: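 Agonist mode in CHO-K1 AGTR1 β-arrestin cells plated 14-16 h before; compounds at varying concentrations for 90 min at 37° C, IP1 accumulation read by HTRF (D2-conjugate and anti-IP1 cryptate, 20 min room temperature). EC50 from 4-parameter logistic fit; activity given as percentage of maximal AII effect.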

[2] = target: T2, hAT1R (Homo sapiens, UniProt P30556); assay: cell-based
T2 sequence (P30556 1-359): T1 sequence (P30556 1-359)

[3] = target: T2, hAT1R; assay: cell-based; conditions: agonist mode; for EC50: read-out: BRET P63 EC50
[4] = target: T1, AGTR1; assay: DiscoveRx β-arrestin2 recruitment assay (enzyme complementation, Pathunter CHO-K1 AGTR1 β-arrestin cell line); assay type: cell-based; conditions: DiscoveRx β-arrestin2 recruitment; for DiscoveRx β-arrestin2 Ymax (%): maximal response
In short: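 CHO-K1 cells expressing AGTR1 with β-arrestin2 enzyme-complementation reporter, plated 14-16 h ahead in 1% serum medium, then exposed to compounds for 90 min at 37° C. Chemiluminescence read after 1 h detection. EC50 (agonist) or IC50 (antagonist) from 4-parameter logistic fit; activity as percentage of All maximal effect.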

[5] = Low AT1R Expression, read-out: BRET β-Arrestin2 Low AT1R Expression EC50
[6] = section of the 42nd table ending at r951, example numbering restarts after the DiscoveRx section, read-out: β-arrestin2 EC50

Row | Structure (SMILES) | IP-1 Ymax (%) [1] [%] | EC50 [1] [nM] | BRET β-Arrestin2 Low AT1R Expression Ymax (%) ([2]; Low AT1R Expression) | EC50 [2, 5] [nM] | BRET P63 Ymax [3] [%] | EC50 [3] [nM] | EC50 [4] [nM] | DiscoveRx β-arrestin2 Ymax (%) [4] [%] | EC50 [2, 6] [nM]
1 | CCCCC1=NC2(CCOC2)C(=O)N1Cc1ccc(-c2cc(-c3ccccc3O)ccc2-c2nnn[nH]2)cc1 (single isomer, unassigned) [Example 150] | 17.2 | 20.7 | 65.7 | 76.9 | 14.6 | 105 | 13.7 | 45.6 | 
2 | CCCCC1=NC2(CCOC2)C(=O)N1Cc1ccc(-c2cc(-c3ccccc3O)ccc2-c2nnn[nH]2)cc1 (single isomer, unassigned) [Example 151] | 14.0 | 607 | 42.5 | 419 | 11.0 | 174 | 76.4 | 44.3 | 
3 | CCCCC1=NC2(CCOC2)C(=O)N1Cc1ccc(-c2cc(-c3cccc(C)c3)ccc2-c2nnn[nH]2)cc1 (single isomer, unassigned) [Example 152] | 7.0 | 30.7 |  |  |  | > 100000 | 11.6 | 28.6 | 21.8
4 | CCCCC1=NC2(CCOC2)C(=O)N1Cc1ccc(-c2cc(-c3cccc(C)c3)ccc2-c2nnn[nH]2)cc1 (single isomer, unassigned) [Example 153] | 6.0 | 229 |  |  |  | > 100000 | 28.7 | 19.6 | 54.1
5 | CCCCC1=NC2(CCOC2)C(=O)N1Cc1ccc(-c2cc(-c3cc(C)ccn3)ccc2-c2nnn[nH]2)cc1 (single isomer, unassigned) [Example 154] | 14.4 | 40.6 |  |  | 25.3 | 57.7 | 14.1 | 48.7 | 63.9
6 | CCCC1=NC2(CCOC2)C(=O)N1Cc1ccc(-c2cc(-c3cccc(C)c3)ccc2-c2nnn[nH]2)cc1 (single isomer, unassigned) [Example 159] | 11.3 | 78.1 |  |  | 11.5 | 79.3 | 51.4 | 44.0 | 40.3
7 | CCCC1=NC2(CCOC2)C(=O)N1Cc1ccc(-c2cc(-c3ccccc3O)ccc2-c2nnn[nH]2)cc1 (single isomer, unassigned) [Example 160] | 15.8 | 132 |  |  | 18.6 | 79.7 | 87.8 | 50.2 | 98.5
8 | CCCC1=NC2(CCOC2)C(=O)N1Cc1ccc(-c2cc(-c3ccccc3F)ccc2-c2nnn[nH]2)cc1 (single isomer, unassigned) [Example 161] | 14.2 | 203 |  |  | 10.9 | 49.6 | 88.5 | 40.7 | 46.3
9 | CCCC1=NC2(CCOC2)C(=O)N1Cc1ccc(-c2cc(-c3ccccc3)ccc2-c2nnn[nH]2)cc1 (single isomer, unassigned) [Example 162] | 8.9 | 235 |  |  |  | > 10000 | 147 | 31.9 | 373
10 | CCCC1=NC2(CCOC2)C(=O)N1Cc1ccc(-c2cc(-c3cccc(C)c3)ccc2-c2nnn[nH]2)cc1 (single isomer, unassigned) [Example 163] | 7.8 | 181 |  |  |  | > 10000 | 69.2 | 34.6 | 91.8
11 | CCCC1=NC2(CCOC2)C(=O)N1Cc1ccc(-c2cc(-c3ccccc3O)ccc2-c2nnn[nH]2)cc1 (single isomer, unassigned) [Example 164] | 17.3 | 231 |  |  | 15.6 | 106 | 76 | 58.7 | 160
12 | CCC1=NC2(CCOC2)C(=O)N1Cc1ccc(-c2cc(-c3ccccc3)ccc2-c2nn[nH]n2)cc1 (single isomer, unassigned) [Example 165] | 17.7 | 192 |  |  | 14.1 | 262 | 56.8 | 45.7 | 281
13 | CCC1=NC2(CCOC2)C(=O)N1Cc1ccc(-c2cc(-c3cccc(C)c3)ccc2-c2nnn[nH]2)cc1 (single isomer, unassigned) [Example 166] | 14.8 | 103 |  |  | 22.7 | 65 | 23.1 | 47.5 | 64.5
14 | CCC1=NC2(CCOC2)C(=O)N1Cc1ccc(-c2cc(-c3ccccc3O)ccc2-c2nnn[nH]2)cc1 (single isomer, unassigned) [Example 167] | 32.4 | 165 |  |  | 32.0 | 91.5 | 36 | 78.8 | 58.3
15 | CCC1=NC2(CCOC2)C(=O)N1Cc1ccc(-c2cc(-c3ccccc3)ccc2-c2nnn[nH]2)cc1 (single isomer, unassigned) [Example 168] | 13.8 | 826 |  |  |  | > 10000 | 352 | 34.5 | 998
16 | CCC1=NC2(CCOC2)C(=O)N1Cc1ccc(-c2cc(-c3cccc(C)c3)ccc2-c2nnn[nH]2)cc1 (single isomer, unassigned) [Example 169] | 14.5 | 484 |  |  | 13.3 | 127 | 111 | 50.1 | 271
17 | CCC1=NC2(CCOC2)C(=O)N1Cc1ccc(-c2cc(-c3ccccc3O)ccc2-c2nnn[nH]2)cc1 (single isomer, unassigned) [Example 170] | 13.2 | 469 |  |  | 13.5 | 633 | 170 | 63.4 | 590
18 | CCc1nc2c(C)cc(C)nc2n1Cc1ccc(-c2cc(-c3ccc(OC)cc3)ccc2-c2nn[nH]n2)cc1 [Example 14] | 8.1 | 14.5 |  | > 10000 |  | > 10000 | 10.3 | 20.8 | 
19 | CCc1nc2c(C)cc(C)nc2n1Cc1ccc(-c2cc(-c3cc(OC)ccn3)ccc2-c2nn[nH]n2)cc1 [Example 62, 2-Ethyl-3-((5′-(4-methoxypyridin-2-yl)-2′-(2H-tetrazol-5-yl)-[1,1′-biphenyl]-4-yl)methyl)-5,7-dimethyl-3H-imidazo[4,5-b]pyridine] | 22.7 | 29 | 74.7 | 3.7 | 35.7 | 4.2 | 15.1 | 50.0 | 
20 | CCc1nc2c(C)cc(C)nc2n1Cc1ccc(-c2cc(N3CCC4(CCOC4)C3)ccc2-c2nn[nH]n2)cc1 (stereo not shown) [Example 92] | 51.1 | 1400 | 66.5 | 309 | 17.8 | 278 |  |  | 
